Results from PubChem BioAssay (NCI).
Values joined by “and” are separate entries in the source; they are usually repeats but may differ in a detail not shown here. Equal entries are not always repeated.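 All cell lines were grown in 96-well plates and treated with compound for 48 hours. GI50 marks 50% less growth. Definition used: TGI = concentration required for complete inhibition of growth.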

What was measured:
Assay in all cases: NCI tumour cell line growth inhibition, 48 h
A498 renal = system: A498 renal
A549 NSCLC = system: A549 NSCLC
EKVX NSCLC = system: EKVX NSCLC
HL-60(TB) leukemia = system: HL-60(TB) leukemia
HOP-92 NSCLC = system: HOP-92 NSCLC
LOX IMVI melanoma = system: LOX IMVI melanoma
MOLT-4 leukemia = system: MOLT-4 leukemia
NCI-H23 lung = system: NCI-H23 lung
OVCAR-8 ovarian = system: OVCAR-8 ovarian
RXF 393 renal = system: RXF 393 renal
SF-539 CNS = system: SF-539 CNS
SK-MEL-5 melanoma = system: SK-MEL-5 melanoma
SN12C renal = system: SN12C renal
SNB-75 CNS = system: SNB-75 CNS
TK-10 renal = system: TK-10 renal
UACC-257 melanoma = system: UACC-257 melanoma
UACC-62 melanoma = system: UACC-62 melanoma
ACHN renal = system: ACHN renal

Compound	TGI (A498 renal)	TGI (A549 NSCLC) [µM]	TGI (EKVX NSCLC)	TGI (HL-60(TB) leukemia)	TGI (HOP-92 NSCLC)	TGI (LOX IMVI melanoma)	TGI (MOLT-4 leukemia)	TGI (NCI-H23 lung)	TGI (OVCAR-8 ovarian)	GI50 (RXF 393 renal)	TGI (RXF 393 renal)	TGI (SF-539 CNS)	TGI (SK-MEL-5 melanoma)	TGI (SN12C renal)	TGI (SNB-75 CNS) [µM]	TGI (TK-10 renal)	TGI (UACC-257 melanoma)	TGI (UACC-62 melanoma)	TGI (ACHN renal) [µM]
COc1cc(C2c3cc4c(cc3[C@@H](NCCN3CCCCC3)C3COC(=O)[C@H]23)OCO4)cc(OC)c1O (some centres undefined)	0.904 µM and 1.47 µM	1.3	5.28 µM and 5.71 µM	0.402 µM and 0.36 µM	0.84 µM and 1.64 µM	1.72 µM and 1.61 µM	0.0735 µM and 0.0311 µM	1.39 µM and 1.48 µM	2.45 µM and 3.41 µM	0.243 µM and 1.27 µM	1.98 µM and 4.14 µM	0.842 µM and 0.896 µM	1.93 µM and 2.19 µM	5.81 µM and 5.85 µM	2.9	5.34 µM and 5.88 µM	41.4 µM and 85 µM	1.73 µM and 1.79 µM	–
Cc1cc(NC(=O)NC(=O)c2ccccc2N)ccc1Oc1ncc(Br)cn1	0.751 µM	20.7	> 84.3 µM	1.39 µM	53.8 µM	> 67.1 µM	> 30.3 µM	0.575 µM	> 46.1 µM	–	1.62 µM	0.287 µM	16.2 µM	> 46.4 µM	37.7	35.1 µM	54.2 µM	1.75 µM	> 100
CCOC(=O)NC(C(=O)OCC)C(F)(F)F (centres undefined)	–	> 100	> 100 µM	69.9 µM	> 100 µM	> 100 µM	> 100 µM	> 100 µM	> 100 µM	–	–	> 100 µM	> 100 µM	> 100 µM	> 100	> 100 µM	> 100 µM	–	> 100
Cc1ccc(S(=O)(=O)NNC(=O)c2sc(-c3nc(C)c(C(=O)NNS(=O)(=O)c4ccc(C)cc4)s3)nc2C)cc1	> 100 µM	> 100	> 100 µM	> 100 µM	> 100 µM	> 100 µM	> 100 µM	> 100 µM	> 100 µM	–	> 100 µM	> 100 µM	> 100 µM	> 100 µM	> 100	> 100 µM	> 100 µM	> 100 µM	> 100
Cc1cccc(NC(=O)c2cc3cc(N=Nc4ccccc4Cl)ccc3oc2=O)c1	> 100 µM	> 100	> 100 µM	> 100 µM	76.1 µM	27.4 µM	> 100 µM	59.5 µM	> 100 µM	–	83.2 µM	94.9 µM	47.1 µM	> 100 µM	> 100	86.2 µM	> 100 µM	42.5 µM	> 100
C=CC(C)(C)C(=C)C(=O)N(C)c1ccccc1I	> 100 µM	> 100	> 100 µM	–	> 100 µM	> 100 µM	> 100 µM	> 100 µM	> 100 µM	–	> 100 µM	–	> 100 µM	> 100 µM	> 100	> 100 µM	> 100 µM	> 100 µM	> 100
C#CCOCn1ccc(=O)[nH]c1=O	> 100 µM	> 100	> 100 µM	> 100 µM	–	> 100 µM	> 100 µM	> 100 µM	> 100 µM	–	–	> 100 µM	> 100 µM	> 100 µM	> 100	> 100 µM	> 100 µM	> 100 µM	> 100
COc1cc(Cl)cc(N(O)C(C)=O)c1OCc1ccccc1	> 100 µM	> 100	> 100 µM	> 100 µM	> 100 µM	> 100 µM	> 100 µM	> 100 µM	> 100 µM	–	> 100 µM	> 100 µM	> 100 µM	> 100 µM	76.4	> 100 µM	> 100 µM	> 100 µM	> 100
COc1cc(NCc2ccc3nc(-c4ccccc4)c(N)nc3c2)cc(OC)c1OC	75.3 µM	83.8	> 100 µM	49.7 µM	78.1 µM	> 100 µM	58.6 µM	62.3 µM	57.3 µM	–	58.9 µM	91.4 µM	28.9 µM	> 100 µM	73.5	> 100 µM	51.4 µM	72.6 µM	> 100
COc1ccc(C(=O)/C=C/c2ccc(OCCSCCCCCCCCCCSCCOc3ccc(/C=C/C(=O)c4ccc(OC)cc4)cc3)cc2)cc1	–	> 100	> 100 µM	> 100 µM	–	–	> 100 µM	–	> 100 µM	–	> 100 µM	> 100 µM	> 100 µM	> 100 µM	> 100	> 100 µM	> 100 µM	> 100 µM	> 100
COc1ccc(C(Cc2cc(OC)c(OC)c(OC)c2)C(=O)O)cc1 (centres undefined)	> 100 µM	> 100	> 100 µM	–	–	> 100 µM	–	> 100 µM	> 100 µM	–	–	> 100 µM	> 100 µM	> 100 µM	65.2	> 100 µM	> 100 µM	> 100 µM	> 100
COC(=O)C1C2C=CC(C2)C1(C(=O)OC)S(=O)CC12CCC(CC1O)C2(C)C (centres undefined)	> 100 µM	> 100	> 100 µM	> 100 µM	> 100 µM	40 µM	> 100 µM	> 100 µM	> 100 µM	–	> 100 µM	> 100 µM	> 100 µM	> 100 µM	> 100	> 100 µM	> 100 µM	> 100 µM	> 100
C=CN1C(=O)OC[C@@H]1c1ccccc1	> 100 µM	> 100	> 100 µM	> 100 µM	> 100 µM	> 100 µM	> 100 µM	> 100 µM	> 100 µM	–	> 100 µM	> 100 µM	> 100 µM	> 100 µM	> 100	> 100 µM	> 100 µM	> 100 µM	> 100
